Values of other authors in patent publication US20090023668A1, “Method for treating blepharitis” (priority 2006, published 2009).

Details: administered to an ocular area at a concentration of 0.1%

## C[C@@H]1C[C@H]2[C@@H]3CCC4=CC(=O)C=C[C@]4(C)[C@@]3(F)[C@@H](O)C[C@]2(C)[C@@]1(O)C(=O)CO [dexamethasone]
  effect on intraocular pressure: can result in an increase in intraocular pressure
